Data set [1] in a line: MTT cytotoxicity assay in BHK-21 cells. The settings on record: hamster, BHK-21 cells (baby hamster kidney), 24 h post-treatment. Type of data set: cell-based. The protocol: (§1) Cytotoxicity of each compound towards cells for four selected cell lines in the range of 1 to 500 µM was evaluated using the MTT (3-(4,5-dimethylthiazol-2-yl)-2,5-diphenyltetrazolium bromide) assay at 24 h post-treatment, in parallel with control and vehicle-treated cells (0.1% dimethyl sulfoxide (DMSO)). The 50% cytotoxic concentration (CC50) values calculated from the dose-response curve (Supplementary Figures S2–S5) are shown in Table 1. Overall, a range of cytotoxicities were seen from the four compounds across the […]. The most cytotoxic combination was ZAD-1 and BHK-21 cells, while the least cytotoxic combination was andrographolide and BHK-21 cells (Table 1).
(§2) A549 cells were cultured in ninety-six-well tissue culture plates under standard conditions until the cells reached 90% confluence. The cell culture medium was removed and then cells were incubated with various concentrations of andrographolide (1–100 μM) diluted in complete medium with FBS prior to being cultured for 24 h under standard conditions before analysis using either the Vybrant MTT Cell proliferation assay kit (V13154, Invitrogen) or the alamarBlue (Thermo Fischer Scientific, Waltham, MA, USA) assay kit according to the manufacturers recommendations. Values were determined from 8 (MTT assay) or 3 (alamarBlue) independent replicates. Negative controls (only media and media with 0.1% DMSO) and positive controls (5% DMSO) were included. To determine cell number, cell cultures were trypsinized by the addition of 0.25% Trypsin/0.1% ethylelediaminetetraacetic acid (EDTA) for 3 min and then cell suspensions were diluted with 0.4% trypan blue solution. Cells were counted using a hemocytometer. Cell morphology was additionally observed under an inverted microscope after 24 h treatment with various concentrations of each compound.
Figu re S2. Cytotoxicity of ZAD -1 (A), ZA D-2 (B), ZA D-3 (C), and andro grapholide (D) to BHK- 21 (baby hamster kidney) cells. BHK- 21 cells were incubated with various concentrations of each compound for 24 hrs followed by MTT cell viability assay. The experiment was undertaken independently in 4 replicates.
DMSO at the same concentrations was used as a control. 10% ethanol, PBS, and milli- Q water were used as a positive control of cell death. The bars show mean ± SD. […]
On the technique in general: Formazan colour is commonly taken as a measure of viable cells.

Data set [2] is described as follows: MTT cytotoxicity assay in HEK293T/17 cells. Type of data set: cell-based. The conditions noted are these: human, HEK293T/17 cells (human embryonic kidney), 24 h post-treatment. The protocol:
as §1, §2
Figu re S5. Cytotoxicity of ZAD -1 (A), ZA D-2 (B), ZA D-3 (C), and andro grapholide (D) to HEK293T/17 (human embryonic kidney) cells.
HEK293T/17 cells were incubated with various concentrations of each compound for 24 hrs followed by MTT cell viability assay. The experiment was undertaken independently in 4 replicates. DMSO at the same concentrations was used as a control.
10% ethanol, PBS, and milli- Q water were used as a positive control of cell death. […]

In the next data set the test system is TKT. Put plainly: 2D-PAGE proteomic analysis of treated A549 cells, TKT spot. The conditions noted are these: A549, 25 µM, 24 h. The data set is classed as cell-based, human. Here is the method:
A549 cells were therefore treated with either vehicle (0.025% DMSO), or with 25 μM of andrographolide or ZAD-1, and at 24 h post-treatment, proteins were prepared and subjected to two-dimension polyacrylamide gel electrophoresis (2D-PAGE). The experiment was undertaken independently in triplicate and representative gels are shown Figure 5, with all replicates being shown in Supplementary Figure S12. […] All of these protein spots were cut from the gels and then subjected to in-gel tryptic digestion followed by mass spectrometry. MASCOT (Matrix Science Inc., Boston, MA, USA) search of the resultant masses identified 4 proteins (Table 3), namely heat shock protein 70 kDa 1A (HSPA1A), phosphoglycerate kinase 1 (PGK1), transketolase (TKT) and nuclear transport protein of GTP-binding nuclear protein Ran (Ran).
2D-PAGE and mass spectroscopic identification of differentially expressed spots was undertaken essentially as previously described. […] Image data were analyzed using Image Master™ 2D Platinum software version 7.0 (GenBio, Geneva, Switzerland). Each spot was evaluated on intensity, volume and area. […] After tryptic in-gel digestion, peptide masses were determined by LC-MS/MS using SYNAPT high definition MS (HDMS) (Waters Corp., Milford, MA, USA).

The subject of another data set is HSPA1A. Put plainly: Western blot of HSPA1A expression in treated A549 cells. Type of data set: cell-based, human. The conditions noted are these: A549, 25 µM, 24 h, normalized to GAPDH. Here is the method:
To confirm the 2D-gel analysis results, HSPA1A and PGK1 were selected for the validation by Western blot. The same three experimental conditions were established, namely A549 cells treated with vehicle (0.025% DMSO), 25 μM andrographolide or 25 μM ZAD-1. Glyceraldehyde-3-phosphate dehydrogenase (GAPDH) was used as a loading control and the proteins were normalized to this protein. […] While the difference in HSPA1A expression between andrographolide treatment and ZAD-1 treatment is consistent with the spot intensity data (Table 3), the spot density for the control DMSO treatment is not consistent with the western blot result.
A total of 40 µg of proteins were separated by electrophoresis through a 12% sodium dodecyl sulfate (SDS) polyacrylamide gel and transferred to a nitrocellulose membrane by electroblotting. The membranes were blocked with 5% skim milk in TBS-T (20 mM Tris, 140 mM NaCl and 0.1% Tween-20) at room temperature for 1 h with shaking. […] The signal of specific protein bands was detected using the Luminata Forte Western HRP Substrate (Millipore Corp., Burlington, MA, USA) and recorded by film autoradiography. […]
For orientation: A western blot detects proteins with antibodies after separation by electrophoresis.

The CC50 is the concentration that lowers cell viability or growth by half.

For `C=C1CC[C@@H]2[C@](C)(CO)[C@H](O)CC[C@@]2(C)[C@@H]1C/C=C1/C(=O)OC[C@H]1O` [Andrographolide], the CC50 at 24 h in data set [1] was 600 ± 75 µM; in data set [2], 294 ± 96 µM. Besides, the “Intensity Level, spot 2 TKT” value with TKT is listed as 1452.51. Further, in the data set with HSPA1A, the “HSPA1A expression compared with the vehicle control” value is “significantly increased”.
For `C=C1CC[C@@H]2[C@]3(C)COC(C)(C)O[C@@H]3CC[C@@]2(C)[C@@H]1C/C=C1/C(=O)OC[C@@H]1Oc1c(Cl)cc(Cl)c2ccc(C)nc12` [ZAD-1], in that order: 136 ± 6 µM, 149 ± 40 µM, 523.514 and “no significant difference from control”.

The values are drawn from article PMC7662321, “Andrographolide and Its 14-Aryloxy Analogues Inhibit Zika and Dengue Virus Infection” (Molecules, 2020).
